In PubChem BioAssay AID489022 (Sanford-Burnham Center for Chemical Genomics, 2010):
Activity calls are given as the source filed them. The rule behind the calls is not given here.

The molecules below were run on HEK-293T NF-kB luciferase reporter, luminescence counterscreen (assay: inhibitors of NF-kB luciferase reporter, HEK-293T, dose response, counter-screen for BCR NF-kB inhibitor project, luminescence, B-cell screen hits (AID 489022)).

| Structure (SMILES) | IC50 |
| --- | --- |
| COc1ccc(/C=C2\SC(=S)N(CCC(=O)Nc3ccc(C(=O)O)cc3)C2=O)cc1 | > 80 µM (inactive) |
| N=c1c2c(n(Cc3cccc(Cl)c3)c3c1CCC3)CCCC2 | 3.77 µM |
| N=c1ccn(Cc2c(Cl)cccc2Cl)cc1 | 14.1 µM |
| CCN1C(=O)c2cccc3c(S(=O)(=O)Nc4ccccn4)ccc1c23 | 9.44 µM |
| O=C(Nc1nc(-c2ccccc2)cs1)c1ccccc1NS(=O)(=O)c1ccc(F)cc1 | 0.39 µM |
| O=C(CCl)Nc1ccccc1Sc1ccccc1 | 37.8 µM (inactive) |
| COc1ccc(NC(=O)c2cc3c(Cl)nc4ccccc4c3s2)cc1OC | > 80 µM (inactive) |
| COc1ccc(/C=C2\SC(=S)N(CCC(=O)Nc3cccc(O)c3)C2=O)cc1 | > 80 µM (inactive) |
| C=C1C(=O)[C@@]23C[C@H]4[C@@H]5[C@@]6(C)CCC[C@@]57[C@@H]2[C@@H](O)[C@@H]1C[C@H]3[C@H]7N4C6 | 17.3 µM |
| CC(C)CCNC(=O)CCCOc1cc(=O)n(C)c2ccccc12 | 60.7 µM (inactive) |
| COc1ccc(-c2ccoc2)cc1[C@H]1[C@H]2C=CC[C@@H](C)[C@@H]2C(=O)N1Cc1ccccc1 | 10.5 µM |
| COc1ccc(OC)c(S(=O)(=O)Nc2ccc(-c3ccc4nnc(C)n4n3)cc2)c1 | 32.2 µM (inactive) |
| CCN1C(=O)c2cccc3c(S(=O)(=O)NCC4CCCO4)ccc1c23 (centres undefined) | 54.5 µM (inactive) |
| O=C(CCCc1nc(-c2ccccc2Cl)no1)NC1CCCC1 | 27.1 µM (inactive) |
| COc1ccc(-n2ncc3c(N4CCC(C(N)=O)CC4)ncnc32)cc1 | > 80 µM (inactive) |
| O=C(CCl)N(c1ccc(Cl)cc1)c1c[nH]c2ccccc12 | 10.8 µM |
| CCc1ccc(/C=C2\SC(=S)N(CCC(=O)NC3=NCCS3)C2=O)cc1 | > 80 µM (inactive) |
| COC(=O)[C@@]12OC[C@]34[C@H]([C@@H](O)[C@@H]1O)[C@@]1(C)C(=O)C(O[C@@H]5OC(CO)[C@@H](O)[C@@H](O)[C@@H]5O)=C[C@@H](C)[C@@H]1C[C@H]3OC(=O)[C@H](OC(=O)/C=C(\C)C(C)(C)OC(C)=O)[C@@H]24 (some centres undefined) | 3.2 µM |
| CCOc1ccc(/C=C2\SC(=S)N(CCC(=O)Nc3ccc(C(=O)O)cc3)C2=O)cc1 | > 80 µM (inactive) |
| COc1ccc(C=C(C(C)=O)C(C)=O)cc1OC | > 80 µM (inactive) |
| CC(C)Cn1c([N+](=O)[O-])nc2c1c(=O)[nH]c(=O)n2C | 37 µM (inactive) |
| COc1ccc(/C=C2/SC(=S)N(CCCC(=O)Nc3cccc(O)c3)C2=O)cc1 | 27.5 µM (inactive) |
| COc1ccc(/C=C2/SC(=S)N(CCCC(=O)Nc3ccc(O)cc3)C2=O)cc1OC | > 80 µM (inactive) |
| Cn1c(=O)n(C)c2cc(C(=O)Nc3ccc4c(c3)OCO4)ccc21 | > 80 µM (inactive) |
| O=C(Nc1cccc(Br)c1)c1ccc2c(c1)SC1=NS(=O)(=O)CCN12 | 10.5 µM |

| Structure (SMILES) | IC50 |
| --- | --- |
| Cc1ccc(-c2nn3c(C)nnc3c3ccccc23)cc1S(=O)(=O)NC(C)(C)CO | 27.6 µM (inactive) |
| Cc1cc(C)c(CN2CCN(C(=O)Cn3cnc4c(NCc5ccccc5)ncnc43)CC2)c(C)c1 | 0.51 µM |
| Cn1nc(-c2ccc(N3CCOCC3)c(NS(=O)(=O)c3ccccc3)c2)c2ccccc2c1=O | 36.9 µM (inactive) |
| Cc1ccc(C)c(OCc2ccc(C(=O)NN)o2)c1 | > 80 µM (inactive) |
| O=C1NC[C@H](c2ccccc2)OC(=O)[C@@H](Cc2ccc(F)cc2)C/C=C\C[C@H]1CC(=O)N(CCO)Cc1ccccc1 | 16.9 µM |
| O=C(NNC(=O)C12CC3CC(CC(C3)C1)C2)c1cccc(O)c1 | > 80 µM (inactive) |
| CN1C(=O)CSc2ccc(NC(=O)N3CCN(c4ccccc4)CC3)cc21 | 50.5 µM (inactive) |
| Cc1cc(OCC(=O)N2CCC(C(N)=O)CC2)c2c3c(c(=O)oc2c1)CCCC3 | > 80 µM (inactive) |
| Cc1cccc(C(=O)Nc2ccc(CC(=O)O)cc2)c1 | 45.2 µM (inactive) |
| O=C(C1CCC1)N1CCN(S(=O)(=O)c2ccc([N+](=O)[O-])cc2)CC1 | > 80 µM (inactive) |
| O=C(Nc1cccc(S(=O)(=O)Nc2ccc(Cl)cc2)c1)c1ccc(Cl)nc1 | 0.79 µM |
| CCOc1ccc(-n2c(SCC(=O)Nc3ccc4c(c3)OCCO4)nc3c(c2=O)SCC3)cc1 | > 80 µM (inactive) |
| CCC(CO)Oc1cc(NCc2ccccc2O)c2ncn(C(C)C)c2c1 (centres undefined) | 4.79 µM |
| COC(=O)C1=C(c2ccc(-c3ccccc3)c(F)c2)C[C@@H]2CC[C@H]1N2C(=O)N1CCCC1 | 1.83 µM |
| Cc1ccc(Sc2cc(NCCCO)c([N+](=O)[O-])c3nonc23)cc1 | > 80 µM (inactive) |
| COc1ccc2nc(C)cc(Sc3nc4ccccc4s3)c2c1 | 11.2 µM |
| COc1ccc(-n2c(-c3ccc(Br)cc3)c[n+]3c2CCc2ccccc2-3)cc1 | 3.96 µM |
| COc1cc(/C=N/Nc2nc(Nc3ccccc3)nc(N3CCOCC3)n2)ccc1OC(=O)c1ccco1 | > 80 µM (inactive) |
| COC(=O)c1[nH]c2ccc(C)cc2c1NC(=O)Nc1ccccc1OC | > 80 µM (inactive) |
| COc1ccc(N(CC(=O)N2CCN(c3ccc(Cl)cc3)CC2)S(=O)(=O)c2c(C)n[nH]c2C)cc1 | 15.3 µM |
| COc1cc(OC)cc(-c2cc3nc(C)c(CCC(=O)NCc4ccccc4)c(C)n3n2)c1 | 10.5 µM |
| Cc1ccc(/C=C2\SC(=S)N(CCCC(=O)Nc3ccccn3)C2=O)cc1 | 32.1 µM (inactive) |
| O=c1cccc2c1c1cc[nH]c3ccc(=O)n2c31 | 2.93 µM |
| COc1ccc(-c2n(Cc3ccccc3)c3ccccc3[n+]2Cc2ccccc2)cc1 | 24.2 µM (inactive) |
| CCN(CC)S(=O)(=O)c1ccc(N2CCOCC2)c(NC(=O)c2[nH]c(C)c(C(C)=O)c2C)c1 | 5.92 µM |

| Structure (SMILES) | IC50 |
| --- | --- |
| CCOCCCNc1nc2c(C)cccn2c(=O)c1/C=C1\SC(=S)N(C(C)CC)C1=O (centres undefined) | > 80 µM (inactive) |
| CC1CCN(c2c(NCc3ccc(C(=O)N4c5ccccc5CC4C)cc3)c(=O)c2=O)CC1 (centres undefined) | 8.73 µM |
| CC1CN(S(=O)(=O)c2ccc(C(=O)Nc3nc(-c4cc5ccccc5o4)cs3)cc2)CC(C)O1 (centres undefined) | < 0.16 µM |
| CCC(=O)N1c2ccccc2C(N(C(C)=O)c2ccccc2)CC1C (centres undefined) | > 80 µM (inactive) |
| CCCNC(=O)c1ccc(N2CCC3(CC2)CC(c2cccc(Br)c2)=NO3)c(NC(=O)c2ccc(Cl)c([N+](=O)[O-])c2)c1 | > 80 µM (inactive) |
| COc1cc(Br)c(C(=O)c2nccc3cc(OC)c(OC)cc23)cc1OC | 27.5 µM (inactive) |
| CC(C)C(=O)Nc1ccc(NC(=O)c2ccc3c(c2)OCO3)cc1 | > 80 µM (inactive) |
| CCn1c(=O)cc(SCC(=O)N2CCCCC2)c2ccccc21 | > 80 µM (inactive) |
| Cc1ccc(C(=O)N2CCCC(c3ccc(Cl)cc3)=N2)cc1 | 36.5 µM (inactive) |
| Cc1nc2ccccn2c1C(=O)/C=C/c1cccc([N+](=O)[O-])c1 | 52.6 µM (inactive) |
| Cc1cc(NC(=O)CCCN2C(=O)/C(=C/c3ccccc3Cl)SC2=S)no1 | > 80 µM (inactive) |
| Cn1c(=O)cc(Nc2ccccc2)c2c(=O)n(-c3ccccc3)c(=O)n(-c3ccccc3)c21 | 79.1 µM (inactive) |
| COc1ccc(-c2noc(N3CCC(C(=O)Nc4ccc(F)cc4F)CC3)n2)cc1 | > 80 µM (inactive) |
| O=C(NNC(=O)c1ccccc1O)c1ccc(Cl)c(S(=O)(=O)N2CCc3ccccc32)c1 | 0.47 µM |
| Oc1[nH]c2ccccc2c1N=Nc1nc(Nc2ccccc2)nc(N2CCOCC2)n1 | 35.5 µM (inactive) |
| CCOc1ccc(S(=O)(=O)NCc2ccncc2)cc1NC(=O)c1ccccc1 | 1.37 µM |
| CCOC(=O)C1CCN(c2ncnc3c2cnn3-c2ccc(OC)cc2)CC1 | 18.4 µM |
| COc1ccc(-c2ccc(F)cc2)cc1[C@H]1[C@H]2C=CC[C@@H](C)[C@@H]2C(=O)N1Cc1ccccc1 | 13.1 µM |
| O=c1c(C=NCCCO)c(-c2ccccc2)[nH]n1-c1nc2ccccc2s1 | > 80 µM (inactive) |
| CC(C)OCCCNC(=O)c1c(N)n(/N=C/c2ccccn2)c2nc3ccccc3nc12 | > 80 µM (inactive) |
| CCN1C(=O)c2cccc3c(S(=O)(=O)Nc4ccccc4)ccc1c23 | 18.7 µM |
| COc1ccccc1/C=C1\SC(=S)N(CCC(=O)Nc2cccc(O)c2)C1=O | > 80 µM (inactive) |
| CC(C)(C)C(=O)/C(=C/c1ccncc1)n1cncn1 | 20.9 µM (inactive) |
| CCn1c(CN2CCN(c3ccc(Cl)cc3)CC2)nc2ccccc21 | 9.25 µM |
